Assay results from US9884849B2, “Fluorinated benzofuranyl-pyrimidine derivatives containing a sulfoximine group” (Bayer Pharma Aktiengesellschaft, priority 2014, dated 2018).
Like-named read-outs stand apart in the source and are kept apart here.

Tests used:
[1] = test system: MOLM-13 cells; experiment: Proliferation assay MOLM-13 (Method 3); assay type: cell-based, human; settings: MOLM-13, 72-hour exposure, Cell Titre-Glo, read-out: Inhibition of MOLM-13 cell proliferation IC50
Experimental: Non-adherent MOLM-13 human acute myeloid leukemia cells (DSMZ ACC 554) were seeded at a density of 5,000 cells/well in a 96-well multititer plate in 100 μL of growth medium supplemented 10% fetal calf serum. After 24 hours, cell viability of one plate (zero-point plate) was determined with the Cell Titre-Glo Luminescent Cell Viability Assay (Promega), while 50 μL of test compound containing medium was added to the wells of the other plates (final concentrations in the range of 0.001-10 μM and DMSO controls; the final concentration of the solvent dimethyl sulfoxide was 0.5%). Cell viability was assessed after 72-hour exposure with the Cell Titre-Glo Luminescent Cell Viability Assay (Promega). IC50 values (inhibitory concentration at 50% of maximal effect) were determined by means of a 4 parameter fit on measurement data which were normalized to vehicle (DMSO) treated cells (=100%) and measurement readings taken immediately before compound exposure (=0%).

[2] = test system: B16F10 cells; experiment: Proliferation assay B16F10 (Method 3); assay type: cell-based, mouse; settings: 4 days, crystal violet, read-out: Inhibition of Bc6F10 cell proliferation IC50
Experimental: (§1) Cultivated tumour cells (HeLa, human cervical tumour cells, ATCC CCL-2; NCI-H460, human non-small cell lung carcinoma cells, ATCC HTB-177; A2780, human ovarian carcinoma cells, ECACC #93112519; DU 145, hormone-independent human prostate carcinoma cells, ATCC HTB-81; HeLa-MaTu-ADR, multidrug-resistant human cervical carcinoma cells, EPO-GmbH Berlin; Caco-2, human colorectal carcinoma cells, ATCC HTB-37; B16F10, mouse melanoma cells, ATCC CRL-6475) were plated at a density of 5,000 cells/well (DU145, HeLa-MaTu-ADR), 3,000 cells/well (NCI-H460, HeLa), 2,500 cells/well (A2780), 1,500 cells/well (Caco-2), or 1,000 cells/well (B16F10) in a 96-well multititer plate in 200 μL of their respective growth medium supplemented 10% fetal calf serum. After 24 hours, the cells of one plate (zero-point plate) were stained with crystal violet (see below), while the medium of the other plates was replaced by fresh culture medium (200 μl), to which the test substances were added in various concentrations (0 μM, as well as in the range of 0.001-10 μM; the final concentration of the solvent dimethyl sulfoxide was 0.5%). The cells were incubated for 4 days in the presence of test substances. Cell proliferation was determined by staining the cells with crystal violet: the cells were fixed by adding 20 μl/measuring point of an 11% glutaric aldehyde solution for 15 minutes at room temperature. After three washing cycles of the fixed cells with water, the plates were dried at room temperature. The cells were stained by adding 100 μl/measuring point of a 0.1% crystal violet solution (pH 3.0). After three washing cycles of the stained cells with water, the plates were dried at room temperature. The dye was dissolved by adding 100 μl/measuring point of a 10% acetic acid solution. The extinction was determined by photometry at a wavelength of 595 nm. The change of cell number, in percent, was calculated by normalization of the measured values to the extinction values of the zero-point plate (=0%) and the extinction of the untreated (0 μm) cells (=100%). The IC50 values (inhibitory concentration at 50% of maximal effect) were determined by means of a 4 parameter fit.

[3] = biological target: T1, CDK9/CycT1 (Homo sapiens, UniProt P50750); experiment: CDK9/CycT1 kinase assay (Method 1a, TR-FRET); assay type: biochemical; settings: 10 μM ATP; for Selectivity CDK9 over CDK2: IC50 (CDK2)/IC50 (CDK9): Methods 1a. and 2a.
T1 construct: Recombinant full-length His-tagged human CDK9 and CycT1; His; purchased Invitrogen PV4131; host or cells: insect cells
T1 sequence (P50750 whole entry): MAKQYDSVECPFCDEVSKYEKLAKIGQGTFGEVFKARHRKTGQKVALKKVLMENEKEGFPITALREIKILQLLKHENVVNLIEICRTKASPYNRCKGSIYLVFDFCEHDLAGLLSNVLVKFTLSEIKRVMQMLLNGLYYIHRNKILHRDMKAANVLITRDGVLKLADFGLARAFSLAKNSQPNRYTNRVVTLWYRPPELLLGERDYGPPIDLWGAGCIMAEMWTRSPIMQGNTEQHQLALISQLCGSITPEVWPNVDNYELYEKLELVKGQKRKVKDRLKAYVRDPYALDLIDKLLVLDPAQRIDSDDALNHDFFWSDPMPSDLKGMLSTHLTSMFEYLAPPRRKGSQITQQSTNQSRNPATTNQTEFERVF
T1 sequence (O60563 whole entry partner): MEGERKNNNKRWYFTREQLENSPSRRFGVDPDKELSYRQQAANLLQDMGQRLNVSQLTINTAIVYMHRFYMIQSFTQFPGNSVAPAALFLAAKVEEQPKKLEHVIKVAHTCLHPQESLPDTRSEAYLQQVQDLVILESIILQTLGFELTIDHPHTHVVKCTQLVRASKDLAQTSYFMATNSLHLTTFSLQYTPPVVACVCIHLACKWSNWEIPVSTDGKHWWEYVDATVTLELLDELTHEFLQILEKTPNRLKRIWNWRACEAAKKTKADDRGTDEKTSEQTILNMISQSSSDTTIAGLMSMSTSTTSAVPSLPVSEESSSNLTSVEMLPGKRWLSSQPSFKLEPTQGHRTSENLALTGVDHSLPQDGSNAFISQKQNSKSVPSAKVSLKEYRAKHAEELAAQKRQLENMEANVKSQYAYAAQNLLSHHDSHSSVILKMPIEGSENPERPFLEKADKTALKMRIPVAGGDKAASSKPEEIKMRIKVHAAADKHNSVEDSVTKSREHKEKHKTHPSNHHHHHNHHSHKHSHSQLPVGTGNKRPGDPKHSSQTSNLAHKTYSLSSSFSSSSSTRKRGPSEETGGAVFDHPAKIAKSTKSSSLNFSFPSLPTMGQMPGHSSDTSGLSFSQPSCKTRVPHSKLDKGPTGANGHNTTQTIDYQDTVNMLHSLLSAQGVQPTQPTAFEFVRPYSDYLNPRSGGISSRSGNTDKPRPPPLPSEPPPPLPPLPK
From the text: 1a. CDK9/CycT1 Kinase Assay:
CDK9/CycT1-Inhibitory Activity of Compounds of the Present Invention was Quantified Employing the CDK9/CycT1 TR-FRET Assay as Described in the Following Paragraphs:
Recombinant full-length His-tagged human CDK9 and CycT1, expressed in insect cells and purified by Ni-NTA affinity chromatography, were purchased from Invitrogen (Cat. No PV4131). As substrate for the kinase reaction biotinylated peptide biotin-Ttds-YISPLKSPYKISEG (C-terminus in amid form) was used which can be purchased e.g. form the company JERINI Peptide Technologies (Berlin, Germany). For the assay 50 nl of a 100 fold concentrated solution of the test compound in DMSO was pipetted into a black low volume 384 well microtiter plate (Greiner Bio-One, Frickenhausen, Germany), 2 μl of a solution of CDK9/CycT1 in aqueous assay buffer [50 mM Tris/HCl pH 8.0, 10 mM MgCl2, 1.0 mM dithiothreitol, 0.1 mM sodium ortho-vanadate, 0.01% (v/v) Nonidet-P40 (Sigma)] were added and the mixture was incubated for 15 min at 22° C. to allow pre-binding of the test compounds to the enzyme before the start of the kinase reaction. Then the kinase reaction was started by the addition of 3 μl of a solution of adenosine-tri-phosphate (ATP, 16.7 μM=>final conc. in the 5 μl assay volume is 10 μM) and substrate (1.67 μM=>final conc. in the 5 μl assay volume is 1 μM) in assay buffer and the resulting mixture was incubated for a reaction time of 25 min at 22° C. The concentration of CDK9/CycT1 was adjusted depending of the activity of the enzyme lot and was chosen appropriate to have the assay in the linear range, typical concentrations were in the range of 1 μg/mL. The reaction was stopped by the addition of 5 μl of a solution of TR-FRET detection reagents (0.2 μM streptavidine-XL665 [Cisbio Bioassays, Codolet, France] and 1 nM anti-RB(pSer807/pSer811)-antibody from BD Pharmingen [#558389] and 1.2 nM LANCE EU-W1024 labeled anti-mouse IgG antibody [Perkin-Elmer, product no. AD0077]) in an aqueous EDTA-solution (100 mM EDTA, 0.2% (w/v) bovine serum albumin in 100 mM HEPES/NaOH pH 7.0).
The resulting mixture was incubated 1 h at 22° C. to allow the formation of complex between the phosphorylated biotinylated peptide and the detection reagents. Subsequently the amount of phosphorylated substrate was evaluated by measurement of the resonance energy transfer from the Eu-chelate to the streptavidine-XL. Therefore, the fluorescence emissions at 620 nm and 665 nm after excitation at 350 nm was measured in a HTRF reader, e.g. a Rubystar (BMG Labtechnologies, Offenburg, Germany) or a Viewlux (Perkin-Elmer). The ratio of the emissions at 665 nm and at […] was taken as the measure for the amount of phosphorylated substrate. The data were normalised (enzyme reaction without inhibitor=0% inhibition, all other assay components but no enzyme=100% inhibition).

[4] = test system: NCI-H460 cells; experiment: Proliferation assay NCI-H460 (Method 3); assay type: cell-based, human; settings: NCI-H460, 4 days, crystal violet, read-out: Inhibition of NCI-H460 cell proliferation IC50
Experimental: as §1

| SMILES | IC50 ([1]; Homo sapiens, MOLM-13, 72 h) | IC50 ([2]; Mus musculus, B16-F10, 96 h) | IC50 [3] | Selectivity CDK9 over CDK2: IC50 (CDK2)/IC50 (CDK9) [3] | IC50 ([4]; Homo sapiens, NCI-H460, 96 h) | IC50 [1] | IC50 [2] | IC50 [4] |
| --- | --- | --- | --- | --- | --- | --- | --- | --- |
| CS(=O)(Cc1cc(Nc2ncc(F)c(-c3ccc(F)c4ccoc34)n2)cc(S(F)(F)(F)(F)F)c1)=NC#N (racemic) [Example 17, (rac)-{[3-{[5-fluoro-4-(4-fluoro-1-benzofuran-7-yl)pyrimidin-2-yl]amino}-5-(pentafluoro-λ^6-sulfanyl)benzyl](methyl)oxido-λ^6-sulfanylidene}cyanamide] | 57 nM | 118 nM | 8 nM | 33 | 192 nM |  |  |  |
| CS(=N)(=O)Cc1cc(Nc2ncc(F)c(-c3ccc(F)c4ccoc34)n2)cc(S(F)(F)(F)(F)F)c1 (racemic) [Example 18, (rac)-5-Fluoro-4-(4-fluoro-1-benzofuran-7-yl)-N-{3-[(S-methylsulfonimidoyl)methyl]-5-(pentafluoro-λ^6-sulfanyl)phenyl}pyrimidin-2-amine] | 30 nM | 168 nM | 2.9 nM | 25 | 136 nM |  |  |  |
| CS(=O)(Cc1cccc(Nc2ncc(F)c(-c3ccc(F)c4ccoc34)n2)c1)=NC#N (single isomer, unassigned) [Example 3, [(3-{[5-Fluoro-4-(4-fluoro-1-benzofuran-7-yl)pyrimidin-2-yl]amino}benzyl)(methyl)oxido-λ^6-sulfanylidene]cyanamide] | 47 nM | 136 nM | 3.3 nM | 14 | 188 nM |  |  |  |
| CS(=O)(Cc1cccc(Nc2ncc(F)c(-c3ccc(F)c4ccoc34)n2)c1)=NC#N (single isomer, unassigned) [Example 2, [(3-{[5-Fluoro-4-(4-fluoro-1-benzofuran-7-yl)pyrimidin-2-yl]amino}benzyl)(methyl)oxido-λ^6-sulfanylidene]cyanamide] |  |  | 1.4 nM | 14 |  | 29 nM | 75 nM | 117 nM |
| Cc1cc(CS(C)(=O)=NC#N)cc(Nc2ncc(F)c(-c3ccc(F)c4ccoc34)n2)c1 (single isomer, unassigned) [Example 14, [(3-{[5-Fluoro-4-(4-fluoro-1-benzofuran-7-yl)pyrimidin-2-yl]amino}-5-methylbenzyl)-(methyl)oxido-λ^6-sulfanylidene]cyanamide] | 75 nM | 69 nM | 4.4 nM | 15 | 112 nM |  |  |  |
| Cc1cc(CS(C)(=O)=NC#N)cc(Nc2ncc(F)c(-c3ccc(F)c4ccoc34)n2)c1 (single isomer, unassigned) [Example 15, [(3-{[5-Fluoro-4-(4-fluoro-1-benzofuran-7-yl)pyrimidin-2-yl]amino}-5-methylbenzyl)-(methyl)oxido-λ^6-sulfanylidene]cyanamide] |  |  | 2.4 nM | 40 |  | 74 nM | 114 nM | 121 nM |
| CS(=N)(=O)Cc1cccc(Nc2ncc(F)c(-c3ccc(F)c4ccoc34)n2)c1 (single isomer, unassigned) [Example 6, 5-Fluoro-4-(4-fluoro-1-benzofuran-7-yl)-N-{3-[(S-methylsulfonimidoyl)-methyl]-phenyl}-pyrimidin-2-amine] |  |  | 2.6 nM | 22 |  | 117 nM | 185 nM | 314 nM |
